Source: patent US10106532B2, “Inhibitors of beta-hydroxylase for treatment of cancer” (MIDWESTERN UNIVERSITY, priority 2012, dated 2018)

What was measured:
ASPH [1] = molecular target: T1, ASPH (Homo sapiens, UniProt Q12797); experiment: binding to ASPH by isothermal titration calorimetry
T1 sequence (Q12797 1-758): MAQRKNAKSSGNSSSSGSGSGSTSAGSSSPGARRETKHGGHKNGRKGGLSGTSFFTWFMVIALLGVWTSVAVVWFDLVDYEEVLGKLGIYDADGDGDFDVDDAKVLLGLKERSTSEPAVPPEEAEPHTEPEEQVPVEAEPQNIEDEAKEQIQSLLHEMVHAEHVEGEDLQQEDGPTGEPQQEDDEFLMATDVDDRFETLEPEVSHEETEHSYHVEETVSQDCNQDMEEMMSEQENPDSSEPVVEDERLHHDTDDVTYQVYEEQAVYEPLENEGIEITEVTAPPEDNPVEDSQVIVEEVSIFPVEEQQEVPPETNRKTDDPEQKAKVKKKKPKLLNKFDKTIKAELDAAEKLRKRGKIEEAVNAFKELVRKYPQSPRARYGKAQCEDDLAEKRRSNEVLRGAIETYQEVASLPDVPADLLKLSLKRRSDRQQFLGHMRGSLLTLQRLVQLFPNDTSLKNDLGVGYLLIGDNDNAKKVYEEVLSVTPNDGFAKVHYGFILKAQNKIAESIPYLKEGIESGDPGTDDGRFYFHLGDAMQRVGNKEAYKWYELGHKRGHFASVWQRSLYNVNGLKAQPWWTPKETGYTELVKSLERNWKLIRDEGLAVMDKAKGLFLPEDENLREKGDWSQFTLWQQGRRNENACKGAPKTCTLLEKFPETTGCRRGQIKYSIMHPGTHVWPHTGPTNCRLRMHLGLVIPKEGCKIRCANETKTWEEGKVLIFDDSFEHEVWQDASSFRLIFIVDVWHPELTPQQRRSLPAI
From the text: In the second step arylhydroxytetronimide was sulfonylated with phenylmethansulfonyl chloride in dry tetrahydrofuran to yield compounds of formula 1 (shown below). Compounds were characterized by 1H and 13C nuclear magnetic resonance, high resolution mass spectroscopy, high performance liquid chromatography, infra-red spectroscopy, melting point, elemental analysis and binding to ASPH by isothermal titration calorimetry.
Candidate parent compounds were selected as inhibitors for β-hydroxylase activity based on crystal structure of the catalytic site in the C-terminal region of ASPH and computer assisted drug design.

HepG2 = experiment: cell viability; format: cell-based, human; settings: 5 μM
Hep3B = experiment: cell viability; format: cell-based, human; settings: 5 μM
NIH 3T3 cells = experiment: cell viability; format: cell-based, mouse; settings: 5 μM, NIH 3T3 cells with no expression of ASPH
FOCUS cells = experiment: directional motility, Boyden chamber-type culture inserts; format: cell-based, human; settings: 5 μM pretreatment for 24 hours, migration 30 min
Method: The β-hydroxylase activity is required for ASPH to mediate its effects on cell motility. Directional motility was measured using Boyden chamber-type culture inserts equipped with porous membranes. FOCUS cells were pretreated with 5 μM of MO-1-1100 and MO-1-500 β-hydroxylase inhibitor for 24 hours, and then placed into the upper chamber. Migration was allowed to proceed for 30 min. ATPLite was used to quantify viable cell density. The cells in the upper well and upper surface of membrane reflects the number of non-migrating cells, luminescence measured at the bottom surface of the membrane reflects the number of migrating and non-adherent cells and luminescence measured in the bottom well was reflect migrating and non-adherent cells. […] Cell invasiveness was assessed by invasion assay using matrigel coated membrane, in which cells were allowed to proceed for 6 hours; those found adhered on the bottom surface of membrane were regarded as invading cells.

ASPH [2] = molecular target: T1, ASPH; experiment: high throughput 14CO2 capture enzymatic assay for ASPH β-hydroxylase activity (ASPH mAb capture from lysates of treated FOCUS cells); format: biochemical; set-up: endogenous in cells; host or cells: FOCUS cells (human hepatocellular carcinoma line)
Method: In yet another aspect, the disclosure provides a method determining ASPH activity by contacting an EGF-like domain peptide with a detectably-labeled α-ketoglutarate and ASPH enzyme and measuring β-hydroxylase activity. In one embodiment, said α-ketoglutarate is ^14C-labelled, and wherein β-hydroxylase activity is measured by detecting liberated ^14CO2. In one embodiment, said liberated ^14CO2 is captured on a filter and radioactivity quantified. […] In one embodiment, said EGF-like domain comprises the amino acid sequence of […] (SEQ ID NO:1). In one embodiment, said EGF-like domain peptide comprises the consensus sequence of CDXXXCXXKXGNGXCDXXCNNAACXXDGXDC (SEQ ID NO: 2).
FIG. 3A is a diagram of the biochemical reaction catalyzed by ASPH derived from PC cell lysates. FIG. 3B is a cartoon illustrating the read-out to quantify ASPH activity in PC cells and tumors. FIG. 3C is an image of membrane was obtained by a phosphor-imager after a 16 hour exposure of the trapping filter to a phospho-screen. FIG. 3D is a bar graph showing intensities were calculated by Image J software and compared to a DMSO control. Vertical bars represent standard deviation. These figures show methods of measurement and data relating to ASPH catalytic activity.
EGF and EGF-like domains are well known in the art and generally include six cysteine residues which have been shown (in EGF) to be involved in disulfide bonds. The main structure is a two-stranded beta-sheet followed by a loop to a C-terminal short two-stranded sheet. Subdomains between the conserved cysteines vary in length. Examples include those described in Davis, C G, 1990, New Biol. 2(5):410-9; Blomquist et al., 1984, Proc Natl Acad Sci USA. 81(23):7363-7; Hommel et al., […], J Mol Biol. 227(1):271-82; Doolittle et al., 1984, Nature. 307(5951):558-60; Appella et al., 1988, FEBS Lett. 231(1):1-4; Sorkin A., 2001, Biochem Soc Trans. August; 29(Pt 4):480-4; each of which is hereby incorporated by reference). FIGS. 3A-C represents the strategy for development and characterization of the performance of an assay to measure ASPH enzymatic activity. FIG. 3A describes the biochemical reaction catalyzed by ASPH. FIG. 3B depicts the read-out of the assay. Protein lysates were extracted from FOCUS cells (high level of ASPH cell surface expression) treated with 1-10 μM of each parent compound for 24 hours. The lysates were added into 96 well-plates coated with ASPH monoclonal antibodies (mAbs) to add an antigen specific (ASPH) capture step to the assay design. After incubation and washing, only ASPH is captured on each well. The reaction is carried out with 60 μM of an EGF domain containing 39AA peptide, 100 μM FeCl2 and 40 μM ^14C labeled α-ketoglutarate were added into each well. The ^14CO2 was captured on a glass fiber membrane soaked in Ca(OH)2. […] The compound was further characterized for clinical use as an anti-tumor agent for PC and HCC and other ASPH-expressing tumors.

## NC1=C(OS(=O)(=O)Cc2ccccc2)C(=O)C(c2ccc(Cl)cc2)O1 (racemic) [MO-1-1100]
ASPH [1]
  ASPH binding: confirmed to demonstrate ASPH binding
HepG2
  cell viability, inhibition rate: 59%
Hep3B
  cell viability, inhibition rate: 60%
NIH 3T3 cells
  decreased cell viability: not
FOCUS cells
  cell migration / motility: significantly inhibited
  migrating and adherent cells: significantly reduced
  population of non-adherent cells: unchanged
  total migrated cells: reduced
ASPH [2]
  identified as hits (screening for inhibition of β-hydroxylase activity): identified as hits
ASPH [2]; 1 μM
  β-hydroxylase activity: substantially inhibits
ASPH [2]; concentration not given
  ASPH enzymatic inhibitory activity (β-hydroxylase): inhibit
